Measured values as given in US20090306012A1, “THERAPEUTIC PROTOCOLS” (priority 2001, published 2009).

Test system: neutrophils
Assay: Phase I clinical trial of 5-fluorouracil + HA (Hyfive) in metastatic colorectal cancer: toxicity, neutrophil counts
[1] = Patient 2, cycle Day 3, 5FU Cycle 1, HyFive Cycle 2
[2] = Patient 2, cycle Day 7, 5FU Cycle 1, HyFive Cycle 2
[3] = Patient 2, cycle Day 9, 5FU Cycle 1, HyFive Cycle 2
[4] = Patient 2, cycle Day 11, 5FU Cycle 1, HyFive Cycle 2
[5] = Patient 2, cycle Day 14, 5FU Cycle 1, HyFive Cycle 2
[6] = Patient 2, cycle Day 16, 5FU Cycle 1, HyFive Cycle 2
[7] = Patient 2, cycle Day 18, 5FU Cycle 1, HyFive Cycle 2
[8] = Patient 2, cycle Day 21, 5FU Cycle 1, HyFive Cycle 2
[9] = Patient 2, cycle Day 23, 5FU Cycle 1, HyFive Cycle 2
[10] = Patient 2, cycle Day 25, 5FU Cycle 1, HyFive Cycle 2
[11] = Patient 4, cycle Day 4, HyFive Cycle 1, 5FU Cycle 2
[12] = Patient 4, cycle Day 5, HyFive Cycle 1, 5FU Cycle 2
[13] = Patient 4, cycle Day 8, HyFive Cycle 1, 5FU Cycle 2
[14] = Patient 4, cycle Day 10, HyFive Cycle 1, 5FU Cycle 2
[15] = Patient 4, cycle Day 12, HyFive Cycle 1, 5FU Cycle 2
[16] = Patient 4, cycle Day 15, HyFive Cycle 1, 5FU Cycle 2
[17] = Patient 4, cycle Day 17, HyFive Cycle 1, 5FU Cycle 2
[18] = Patient 4, cycle Day 19, HyFive Cycle 1, 5FU Cycle 2
[19] = Patient 4, cycle Day 22, HyFive Cycle 1, 5FU Cycle 2
[20] = Patient 4, cycle Day 24, HyFive Cycle 1, 5FU Cycle 2
[21] = Patient 4, cycle Day 26, HyFive Cycle 1, 5FU Cycle 2
[22] = Patient 5, cycle Day 5, 5FU Cycle 1, HyFive Cycle 2
[23] = Patient 5, cycle Day 10, 5FU Cycle 1, HyFive Cycle 2
[24] = Patient 5, cycle Day 12, 5FU Cycle 1, HyFive Cycle 2
[25] = Patient 5, cycle Day 15, 5FU Cycle 1, HyFive Cycle 2
[26] = Patient 5, cycle Day 17, 5FU Cycle 1, HyFive Cycle 2
[27] = Patient 5, cycle Day 19, 5FU Cycle 1, HyFive Cycle 2
[28] = Patient 5, cycle Day 22, 5FU Cycle 1, HyFive Cycle 2
[29] = Patient 5, cycle Day 24, 5FU Cycle 1, HyFive Cycle 2
[30] = Patient 5, cycle Day 26, 5FU Cycle 1, HyFive Cycle 2
[31] = Patient 6, cycle Day 3, 5FU Cycle 1, HyFive Cycle 2
[32] = Patient 6, cycle Day 8, 5FU Cycle 1, HyFive Cycle 2
[33] = Patient 6, cycle Day 10, 5FU Cycle 1, HyFive Cycle 2
[34] = Patient 6, cycle Day 12, 5FU Cycle 1, HyFive Cycle 2
[35] = Patient 6, cycle Day 15, 5FU Cycle 1, HyFive Cycle 2
[36] = Patient 6, cycle Day 17, 5FU Cycle 1, HyFive Cycle 2
[37] = Patient 6, cycle Day 19, 5FU Cycle 1, HyFive Cycle 2
[38] = Patient 6, cycle Day 22, 5FU Cycle 1, HyFive Cycle 2
[39] = Patient 6, cycle Day 24, 5FU Cycle 1, HyFive Cycle 2
[40] = Patient 6, cycle Day 26, 5FU Cycle 1, HyFive Cycle 2
[41] = Patient 7, cycle Day 3, HyFive Cycle 1, 5FU Cycle 2
[42] = Patient 7, cycle Day 5, HyFive Cycle 1, 5FU Cycle 2
[43] = Patient 7, cycle Day 8, HyFive Cycle 1, 5FU Cycle 2
[44] = Patient 7, cycle Day 10, HyFive Cycle 1, 5FU Cycle 2
[45] = Patient 7, cycle Day 15, HyFive Cycle 1, 5FU Cycle 2
[46] = Patient 7, cycle Day 17, HyFive Cycle 1, 5FU Cycle 2
[47] = Patient 7, cycle Day 19, HyFive Cycle 1, 5FU Cycle 2
[48] = Patient 7, cycle Day 22, HyFive Cycle 1, 5FU Cycle 2
[49] = Patient 7, cycle Day 24, HyFive Cycle 1, 5FU Cycle 2
[50] = Patient 7, cycle Day 26, HyFive Cycle 1, 5FU Cycle 2

Description: The 5-FU±HA was given by intravenous administration over one hour on a four week cycle. The initial dose of 5-FU in this study was 450 mg/m^2 daily for three days and the dose of HA 500 mg/m^2 with each administration of 5-FU. Dose escalation occurred in two steps to reach the standard dose of 450 mg/m^2 for five consecutive days with each cycle. Therefore, the initial dose level was 450 mg/r^2 daily for three days, the next 450 mg/m^2 for four days and the final 450 mg/m^2 daily for five days.

O=c1[nH]cc(F)c(=O)[nH]1 [5FU, 5-fluorouracil]
Neutrophil Count [1]: 7.6
Neutrophil Count as % Day 1 [1]: 82%
Neutrophil Count [2]: 8.4
Neutrophil Count as % Day 1 [2]: 90%
Neutrophil Count [3]: 8.3
Neutrophil Count as % Day 1 [3]: 89%
Neutrophil Count [4]: 6.8
Neutrophil Count as % Day 1 [4]: 73%
Neutrophil Count [5]: 7
Neutrophil Count as % Day 1 [5]: 75%
Neutrophil Count [6]: 7.3
Neutrophil Count as % Day 1 [6]: 78%
Neutrophil Count [7]: 8.4
Neutrophil Count as % Day 1 [7]: 90%
Neutrophil Count [8]: 8.2
Neutrophil Count as % Day 1 [8]: 88%
Neutrophil Count [9]: 7.8
Neutrophil Count as % Day 1 [9]: 84%
Neutrophil Count [10]: 8.7
Neutrophil Count as % Day 1 [10]: 94%
Neutrophil Count (Patient 2 L-F (Day 3 Tx), cycle Day 1, 5FU Cycle 1, HyFive Cycle 2): 9.3
Neutrophil Count [11]: 4.4
Neutrophil Count as % Day 1 [11]: 86%
Neutrophil Count [12]: 4.4
Neutrophil Count as % Day 1 [12]: 86%
Neutrophil Count [13]: 5
Neutrophil Count as % Day 1 [13]: 98%
Neutrophil Count [14]: 10.3
Neutrophil Count as % Day 1 [14]: 202%
Neutrophil Count [15]: 6.9
Neutrophil Count as % Day 1 [15]: 135%
Neutrophil Count [16]: 6.7
Neutrophil Count as % Day 1 [16]: 131%
Neutrophil Count [17]: 7.5
Neutrophil Count as % Day 1 [17]: 147%
Neutrophil Count [18]: 6.5
Neutrophil Count as % Day 1 [18]: 127%
Neutrophil Count [19]: 6.1
Neutrophil Count as % Day 1 [19]: 120%
Neutrophil Count [20]: 7.9
Neutrophil Count as % Day 1 [20]: 155%
Neutrophil Count [21]: 5.3
Neutrophil Count as % Day 1 [21]: 104%
Neutrophil Count (Patient 4 C-X (4 Day Tx), cycle Day 1, HyFive Cycle 1, 5FU Cycle 2): 5.1
Neutrophil Count [22]: 4.5
Neutrophil Count as % Day 1 [22]: 107%
Neutrophil Count [23]: 4.1
Neutrophil Count as % Day 1 [23]: 98%
Neutrophil Count [24]: 4.3
Neutrophil Count as % Day 1 [24]: 102%
Neutrophil Count [25]: 3.7
Neutrophil Count as % Day 1 [25]: 88%
Neutrophil Count [26]: 3.3
Neutrophil Count as % Day 1 [26]: 79%
Neutrophil Count [27]: 4.3
Neutrophil Count as % Day 1 [27]: 102%
Neutrophil Count [28]: 4.3
Neutrophil Count as % Day 1 [28]: 102%
Neutrophil Count [29]: 4
Neutrophil Count as % Day 1 [29]: 95%
Neutrophil Count [30]: 4.5
Neutrophil Count as % Day 1 [30]: 107%
Neutrophil Count (Patient 5 J-M (5 Day Tx), cycle Day 1, 5FU Cycle 1, HyFive Cycle 2): 4.2
Neutrophil Count [31]: 4.3
Neutrophil Count as % Day 1 [31]: 81%
Neutrophil Count [32]: 4.5
Neutrophil Count as % Day 1 [32]: 85%
Neutrophil Count [33]: 6.6
Neutrophil Count as % Day 1 [33]: 125%
Neutrophil Count [34]: 4.5
Neutrophil Count as % Day 1 [34]: 85%
Neutrophil Count [35]: 4.2
Neutrophil Count as % Day 1 [35]: 79%
Neutrophil Count [36]: 5.5
Neutrophil Count as % Day 1 [36]: 104%
Neutrophil Count [37]: 5.3
Neutrophil Count as % Day 1 [37]: 100%
Neutrophil Count [38]: 5.7
Neutrophil Count as % Day 1 [38]: 108%
Neutrophil Count [39]: 5.4
Neutrophil Count as % Day 1 [39]: 102%
Neutrophil Count [40]: 5
Neutrophil Count as % Day 1 [40]: 94%
Neutrophil Count (Patient 6 J-B (5 Day Tx), cycle Day 1, 5FU Cycle 1, HyFive Cycle 2): 5.3
Neutrophil Count [41]: 2.3
Neutrophil Count as % Day 1 [41]: 77%
Neutrophil Count [42]: 2.8
Neutrophil Count as % Day 1 [42]: 93%
Neutrophil Count [43]: 3.2
Neutrophil Count as % Day 1 [43]: 107%
Neutrophil Count [44]: 2.5
Neutrophil Count as % Day 1 [44]: 83%
Neutrophil Count [45]: 2.7
Neutrophil Count as % Day 1 [45]: 90%
Neutrophil Count [46]: 2.5
Neutrophil Count as % Day 1 [46]: 83%
Neutrophil Count [47]: 3
Neutrophil Count as % Day 1 [47]: 100%
Neutrophil Count [48]: 3.4
Neutrophil Count as % Day 1 [48]: 113%
Neutrophil Count [49]: 3.1
Neutrophil Count as % Day 1 [49]: 103%
Neutrophil Count [50]: 3.5
Neutrophil Count as % Day 1 [50]: 117%
Neutrophil Count (Patient 7 V-D (5 Day Tx), cycle Day 1, HyFive Cycle 1, 5FU Cycle 2): 3
